# pKi: −log10 of the molar value. Calls of active or inactive are those of the source. The calls are words filed in the database; no cut-off is given here.
# Legend:
# Carbonic anhydrase 9 = Carbonic anhydrase 9 (Homo sapiens, UniProt Q16790)
# Description: Inhibition of human carbonic anhydrase 9 pre-incubated for 15 mins by stopped flow carbon dioxide hydrase assay
# Carbonic anhydrase 1 = Carbonic anhydrase 1 (Homo sapiens, UniProt P00915); assay: Inhibition of human carbonic anhydrase 1 pre-incubated for 15 mins by stopped flow carbon dioxide hydrase assay
# Carbonic anhydrase 2 = Carbonic anhydrase 2 (Homo sapiens, UniProt P00918); assay: Inhibition of human carbonic anhydrase 2 pre-incubated for 15 mins by stopped flow carbon dioxide hydrase assay
# Oryctolagus cuniculus [1] = species on record: Oryctolagus cuniculus; assay: Reduction in intraocular pressure in New Zealand albino rabbit model of hypertonic saline-induced ocular hypertension at 1 to 2% instilled immediately after hypertonic saline injection measured after 4 hrs post dose; assay type: functional; conditions: Eye
# Oryctolagus cuniculus [2] = species on record: Oryctolagus cuniculus; assay: Reduction in intraocular pressure in New Zealand albino rabbit model of hypertonic saline-induced ocular hypertension at 1 to 2% instilled immediately after hypertonic saline injection measured after 2 hrs post dose; assay type: functional, Eye
# Chain of Carbonic anhydrase 1 (P00915 whole entry): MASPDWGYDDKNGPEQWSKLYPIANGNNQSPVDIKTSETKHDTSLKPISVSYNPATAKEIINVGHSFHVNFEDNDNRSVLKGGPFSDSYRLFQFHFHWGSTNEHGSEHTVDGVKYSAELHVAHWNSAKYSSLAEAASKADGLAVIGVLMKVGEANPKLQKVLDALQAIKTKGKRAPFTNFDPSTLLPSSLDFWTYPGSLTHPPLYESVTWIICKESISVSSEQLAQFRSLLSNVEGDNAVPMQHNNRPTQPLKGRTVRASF
pKi (Carbonic anhydrase 9),SMILES,also measured
8.59,NS(=O)(=O)c1ccc(OCc2cn(-c3ccccc3)nn2)cc1,
,NS(=O)(=O)c1ccc(-n2cc(-c3ccccc3)nn2)cc1,pKi (Carbonic anhydrase 1): 6.47
7.79,NS(=O)(=O)c1ccc(OCc2cn(-c3ccc(F)cc3)nn2)cc1,
8.62,NS(=O)(=O)c1ccc(-n2cc(CSc3ccccc3)nn2)cc1,
7.92,NS(=O)(=O)c1ccc(-n2cc(CN(Cc3cn(-c4ccc(S(N)(=O)=O)cc4)nn3)c3ccccc3)nn2)cc1,pKi (Carbonic anhydrase 1): < 5.00; pKi (Carbonic anhydrase 2): < 5.00
7.63,NS(=O)(=O)c1ccc(OCc2cn(-c3ccc(C(F)(F)F)cc3)nn2)cc1,pKi (Carbonic anhydrase 1): < 5.00
8.68,NS(=O)(=O)c1ccc(-n2cc(COc3ccccc3)nn2)cc1,Activity (Oryctolagus cuniculus [1]): Active; Activity (Oryctolagus cuniculus [2]): 3 mmHg
8.66,NS(=O)(=O)c1ccc(-n2cc(CNc3ccccc3)nn2)cc1,Activity (Oryctolagus cuniculus [2]): 2 mmHg
7.76,NS(=O)(=O)c1ccc(-n2cc(COc3cccnc3)nn2)cc1,
8.64,Cc1cccc(OCc2cn(-c3ccc(S(N)(=O)=O)cc3)nn2)c1,
7.69,COc1cccc(-n2cc(COc3ccc(S(N)(=O)=O)cc3)nn2)c1,
7.73,NS(=O)(=O)c1ccc(OCc2cn(-c3ccc(O)cc3)nn2)cc1,
8.03,COc1cccc(OCc2cn(-c3ccc(S(N)(=O)=O)cc3)nn2)c1,
7.84,COc1ccc(OCc2cn(-c3ccc(S(N)(=O)=O)cc3)nn2)cc1,

# From ChEMBL document CHEMBL3860109, “Benzenesulfonamides Incorporating Flexible Triazole Moieties Are Highly Effective Carbonic Anhydrase Inhibitors: Synthesis and Kinetic, Crystallographic, Computational, and Intraocular Pressure Lowering Investigations” (J Med Chem, 2016)
